From US20160038235A1, “INGENOL MEBUTATE IN COMBINATION WITH LASER THERAPY FOR THE TREATMENT OF HYPE[…] LESIONS” (LEO LABORATORIES LIMITED, priority 2013, published 2016)

Assay: Penetration of ingenol mebutate in static in vitro Franz cell model after fractional Er:YAG laser pre-treatment
Type: in vitro ADME, porcine
Design: Uptake: unit not given here
Details: for Uptake: 21 h
Description: Penetration of Ingenol mebutate was investigated in a static in vitro Franz cell model, using porcine skin. Prior to ingenol mebutate application, the skin was pre-treated with a fractional 2940 Er:YAG laser. Two settings were used based on pulse durations at 125 or 225 μs, and power at 1.3 or 1.7 W, delivering total energies per laser channel at 11 or 128 mJ, respectively. The settings were investigated at 1, 5 and 10% densities. The shape and depth of the micropores were evaluated in a dissecting microscope. After 21 h in the Franz cells, stratum corneum was tape stripped and liquid chromatography-mass spectrometry (LC-MS) was used to analyze IngMeb concentrations in stratum corneum, skin and receptor fluid.

C/C=C(/C)C(=O)O[C@H]1C(C)=C[C@]23C(=O)[C@@H](C=C(CO)[C@@H](O)[C@]12O)[C@H]1[C@@H](C[C@H]3C)C1(C)C [ingenol mebutate]
Uptake (1—No Laser, Dermis): 508 | Uptake (1—No Laser, Epidermis): 606 | Uptake (1—No Laser, Receiver): 0 | Uptake (1—No Laser, SC): 708 | Enhancement Factor (1—No Laser, Viable skin (reference)): 1 | Uptake (1—No Laser, Viable skin): 1114 | Uptake (2—Superficial 1% (approx. 50 μm micropores), Viable skin): 1340 | Uptake (2—Superficial 1%, Dermis): 843 | Uptake (2—Superficial 1%, Epidermis): 558 | Uptake (2—Superficial 1%, Receiver): 122 | Uptake (2—Superficial 1%, SC): 603 | Enhancement Factor (2—Superficial 1%, Viable skin, vs No laser): 1.20 | Uptake (3—Superficial 5%, Dermis): 1584 | Uptake (3—Superficial 5%, Epidermis): 568 | Uptake (3—Superficial 5%, Receiver): 408 | Uptake (3—Superficial 5%, SC): 135 | Uptake (3—Superficial 5%, Viable skin): 2152 | Enhancement Factor (3—Superficial 5%, Viable skin, vs No laser): 1.93 | Uptake (4—Superficial 10%, Dermis): 1801 | Uptake (4—Superficial 10%, Epidermis): 388 | Uptake (4—Superficial 10%, Receiver): 547 | Uptake (4—Superficial 10%, SC): 59 | Uptake (4—Superficial 10%, Viable skin): 2189 | Enhancement Factor (4—Superficial 10%, Viable skin, vs No laser): 1.97 | Uptake (5—Mid-Dermal-1% (approx. 500 μm micropores), Viable skin): 1510 | Uptake (5—Mid-Dermal-1%, Dermis): 1076 | Uptake (5—Mid-Dermal-1%, Epidermis): 366 | Uptake (5—Mid-Dermal-1%, Receiver): 304 | Uptake (5—Mid-Dermal-1%, SC): 369 | Enhancement Factor (5—Mid-Dermal-1%, Viable skin, vs No laser): 1.35 | Uptake (6—Mid-Dermal 5%, Dermis): 1744 | Uptake (6—Mid-Dermal 5%, Epidermis): 386 | Uptake (6—Mid-Dermal 5%, Receiver): 677 | Uptake (6—Mid-Dermal 5%, SC): 127 | Uptake (6—Mid-Dermal 5%, Viable skin): 2126 | Enhancement Factor (6—Mid-Dermal 5%, Viable skin, vs No laser): 1.91 | Uptake (7—Mid-Dermal 10%, Dermis): 1986 | Uptake (7—Mid-Dermal 10%, Epidermis): 260 | Uptake (7—Mid-Dermal 10%, Receiver): 622 | Uptake (7—Mid-Dermal 10%, SC): 9 | Uptake (7—Mid-Dermal 10%, Viable skin): 2224 | Enhancement Factor (7—Mid-Dermal 10%, Viable skin, vs No laser): 2.00 | accumulation in the epidermis, laser compared with no laser pre-treatment (10% density at 50 μm micropores, all densities at 500 μm micropores): decreased ingenol mebutate in the epidermis | accumulation in stratum corneum (SC), laser pre-treatment compared with no laser pre-treatment (50 μm and 500 μm micropores, decreasing with increasing density): less ingenol mebutate was accumulated | increase in ingenol mebutate in the dermis with laser pre-treatment compared with no laser pre-treatment (density dependent (1-10%)): 1.7-3.9 fold | dermis uptake, 10% density compared with 5%, and 500 μm compared with 50 μm micropores (laser pre-treatment): no added benefit was observed | improved uptake in the epidermis relative to uptake without use of the laser (maximum): ≤ 4 times | delivery of ingenol mebutate to dermis, increase following laser pre-treatment compared to no laser pre-treatment (maximum increase): ≤ 4 fold
